What was measured:
Assay in all cases: relative viability (nuclei count vs DMSO), 5 days (fraction); higher = more cells survive
A549 = system: A549
How it was run: (§1)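 Relative viability divides the nuclei count in treated wells by that in vehicle wells. Lung cancer cell lines were seeded in 1536-well plates, dosed by pin tool the next day, and fixed and stained after 5 days in one step with final 0.05% Triton X-100, 1% formaldehyde and 1 ug/ml Hoechst. Dosing was a single drug or a fixed anchor-drug dose plus five library-drug doses (not always all listed) in √10 steps, and values are medians of duplicate plates imaged at 4×.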

Calu-6 = system: Calu-6
How it was run: as §1

EBC-1 = system: EBC-1
How it was run: as §1

IA-LM = system: IA-LM
How it was run: as §1

LCLC-97TM1 = system: LCLC-97TM1
How it was run: as §1

NCI-H1299 = system: NCI-H1299
How it was run: as §1

NCI-H1355 = system: NCI-H1355
How it was run: as §1

NCI-H1703 = system: NCI-H1703
How it was run: as §1

NCI-H1993 = system: NCI-H1993
How it was run: as §1

NCI-H23 = system: NCI-H23
How it was run: as §1

NCI-H322M = system: NCI-H322M
How it was run: as §1

NCI-H596 = system: NCI-H596
How it was run: as §1

UMC-11 = system: UMC-11
How it was run: as §1

SMILES: CCN(CC)CCCCNc1ncc2cc(-c3cc(OC)cc(OC)c3)c(NC(=O)NC(C)(C)C)nc2n1 + C[C@@H](Oc1cc(-c2cnn(C3CCNCC3)c2)cnc1N)c1c(Cl)ccc(F)c1Cl [Crizotinib] (partner 1 µM)
- relative viability (A549; first compound 0.01 µM): 0.782
- relative viability (A549; first compound 0.03162 µM): 0.854
- relative viability (A549; first compound 0.1 µM): 0.961
- relative viability (A549; first compound 0.3162 µM): 0.805
- relative viability (A549; first compound 1 µM): 0.655
- relative viability (Calu-6; first compound 0.01 µM): 0.943
- relative viability (Calu-6; first compound 0.03162 µM): 0.784
- relative viability (Calu-6; first compound 0.1 µM): 0.899
- relative viability (Calu-6; first compound 0.3162 µM): 1.02
- relative viability (Calu-6; first compound 1 µM): 0.712
- relative viability (EBC-1; first compound 0.01 µM): 0.209
- relative viability (EBC-1; first compound 0.03162 µM): 0.189
- relative viability (EBC-1; first compound 0.1 µM): 0.242
- relative viability (EBC-1; first compound 0.3162 µM): 0.213
- relative viability (EBC-1; first compound 1 µM): 0.187
- relative viability (IA-LM; first compound 0.01 µM): 0.766
- relative viability (IA-LM; first compound 0.03162 µM): 0.629
- relative viability (IA-LM; first compound 0.1 µM): 1.02
- relative viability (IA-LM; first compound 0.3162 µM): 0.97
- relative viability (IA-LM; first compound 1 µM): 0.932
- relative viability (LCLC-97TM1; first compound 0.03162 µM): 0.45
- relative viability (LCLC-97TM1; first compound 0.1 µM): 0.373
- relative viability (LCLC-97TM1; first compound 0.3162 µM): 0.396
- relative viability (LCLC-97TM1; first compound 1 µM): 0.326
- relative viability (NCI-H1299; first compound 0.01 µM): 1
- relative viability (NCI-H1299; first compound 0.03162 µM): 0.912
- relative viability (NCI-H1299; first compound 0.1 µM): 1.02
- relative viability (NCI-H1299; first compound 0.3162 µM): 0.972
- relative viability (NCI-H1299; first compound 1 µM): 0.89
- relative viability (NCI-H1355; first compound 0.01 µM): 1.17
- relative viability (NCI-H1355; first compound 0.03162 µM): 1.16
- relative viability (NCI-H1355; first compound 0.1 µM): 1.05
- relative viability (NCI-H1355; first compound 0.3162 µM): 1.11
- relative viability (NCI-H1355; first compound 1 µM): 1.06
- relative viability (NCI-H1703; first compound 0.01 µM): 0.495
- relative viability (NCI-H1703; first compound 0.03162 µM): 0.584
- relative viability (NCI-H1703; first compound 0.1 µM): 0.986
- relative viability (NCI-H1703; first compound 0.3162 µM): 0.586
- relative viability (NCI-H1703; first compound 1 µM): 0.799
- relative viability (NCI-H1993; first compound 0.01 µM): 0.875
- relative viability (NCI-H1993; first compound 0.03162 µM): 0.974
- relative viability (NCI-H1993; first compound 0.1 µM): 0.875
- relative viability (NCI-H1993; first compound 0.3162 µM): 0.985
- relative viability (NCI-H1993; first compound 1 µM): 0.783
- relative viability (NCI-H23; first compound 0.01 µM): 0.537
- relative viability (NCI-H23; first compound 0.03162 µM): 0.568
- relative viability (NCI-H23; first compound 0.1 µM): 0.496
- relative viability (NCI-H23; first compound 0.3162 µM): 0.536
- relative viability (NCI-H23; first compound 1 µM): 0.511
- relative viability (NCI-H322M; first compound 0.01 µM): 0.977
- relative viability (NCI-H322M; first compound 0.03162 µM): 0.912
- relative viability (NCI-H322M; first compound 0.1 µM): 0.928
- relative viability (NCI-H322M; first compound 0.3162 µM): 1.06
- relative viability (NCI-H322M; first compound 1 µM): 0.935
- relative viability (NCI-H596; first compound 0.01 µM): 0.918
- relative viability (NCI-H596; first compound 0.03162 µM): 1.04
- relative viability (NCI-H596; first compound 0.1 µM): 1.02
- relative viability (NCI-H596; first compound 0.3162 µM): 0.956
- relative viability (NCI-H596; first compound 1 µM): 0.894
- relative viability (UMC-11; first compound 0.01 µM): 0.691
- relative viability (UMC-11; first compound 0.03162 µM): 0.459
- relative viability (UMC-11; first compound 0.1 µM): 0.636
- relative viability (UMC-11; first compound 0.3162 µM): 0.805
- relative viability (UMC-11; first compound 1 µM): 0.554

SMILES: COc1nc(C)cnc1NS(=O)(=O)c1cccnc1-c1ccc(-c2nnco2)cc1 [Zibotentan] + CS(=O)(=O)N1CCN(Cc2cc3nc(-c4cccc5[nH]ncc45)nc(N4CCOCC4)c3s2)CC1 [Pictilisib] (partner 1 µM)
- relative viability (A549; first compound 0.08 µM): 0.478
- relative viability (A549; first compound 0.253 µM): 0.388
- relative viability (A549; first compound 0.8 µM): 0.57
- relative viability (A549; first compound 2.53 µM): 0.519
- relative viability (Calu-6; first compound 0.08 µM): 0.868
- relative viability (Calu-6; first compound 0.253 µM): 0.83
- relative viability (Calu-6; first compound 0.8 µM): 0.881
- relative viability (Calu-6; first compound 2.53 µM): 1.03
- relative viability (EBC-1; first compound 0.08 µM): 0.369
- relative viability (EBC-1; first compound 0.253 µM): 0.435
- relative viability (EBC-1; first compound 0.8 µM): 0.486
- relative viability (EBC-1; first compound 2.53 µM): 0.389
- relative viability (IA-LM; first compound 0.253 µM): 0.312
- relative viability (IA-LM; first compound 0.8 µM): 0.328
- relative viability (IA-LM; first compound 2.53 µM): 0.301
- relative viability (LCLC-97TM1; first compound 0.08 µM): 0.214
- relative viability (LCLC-97TM1; first compound 0.253 µM): 0.167
- relative viability (LCLC-97TM1; first compound 0.8 µM): 0.176
- relative viability (LCLC-97TM1; first compound 2.53 µM): 0.176
- relative viability (NCI-H1299; first compound 0.08 µM): 0.911
- relative viability (NCI-H1299; first compound 0.253 µM): 0.777
- relative viability (NCI-H1299; first compound 0.8 µM): 0.773
- relative viability (NCI-H1299; first compound 2.53 µM): 0.661
- relative viability (NCI-H1355; first compound 0.08 µM): 0.403
- relative viability (NCI-H1355; first compound 0.253 µM): 0.424
- relative viability (NCI-H1355; first compound 0.8 µM): 0.431
- relative viability (NCI-H1355; first compound 2.53 µM): 0.436
- relative viability (NCI-H1703; first compound 0.08 µM): 0.232
- relative viability (NCI-H1703; first compound 0.253 µM): 0.272
- relative viability (NCI-H1703; first compound 0.8 µM): 0.26
- relative viability (NCI-H1703; first compound 2.53 µM): 0.252
- relative viability (NCI-H1993; first compound 0.253 µM): 0.736
- relative viability (NCI-H1993; first compound 0.8 µM): 0.748
- relative viability (NCI-H1993; first compound 2.53 µM): 0.796
- relative viability (NCI-H23; first compound 0.08 µM): 0.403
- relative viability (NCI-H23; first compound 0.253 µM): 0.462
- relative viability (NCI-H23; first compound 0.8 µM): 0.556
- relative viability (NCI-H23; first compound 2.53 µM): 0.58
- relative viability (NCI-H322M; first compound 0.08 µM): 0.521
- relative viability (NCI-H322M; first compound 0.253 µM): 0.559
- relative viability (NCI-H322M; first compound 0.8 µM): 0.533
- relative viability (NCI-H322M; first compound 2.53 µM): 0.506
- relative viability (NCI-H596; first compound 0.08 µM): 0.446
- relative viability (NCI-H596; first compound 0.253 µM): 0.417
- relative viability (NCI-H596; first compound 0.8 µM): 0.385
- relative viability (NCI-H596; first compound 2.53 µM): 0.428
- relative viability (UMC-11; first compound 0.08 µM): 0.746
- relative viability (UMC-11; first compound 0.253 µM): 0.809
- relative viability (UMC-11; first compound 0.8 µM): 0.837
- relative viability (UMC-11; first compound 2.53 µM): 0.777

— the supplement of paper PMC10307832
